Five molecules from ChEMBL document CHEMBL1122369, “Autoxidation of the antitumor drug 9-hydroxyellipticine and its derivatives” (1983) can be followed below.

The assay has as its system L1210. Kind of assay: Growth inhibitory activity against L1210 lymphocytic leukemia cells. Type of assay: functional. The following applies: Mus musculus, read-out: ID50 (the source's name).

On to `Cc1c2ccncc2c(C)c2c1[nH]c1ccc(O)cc12`, for which the IC50 amounted to 15 nM.
Turning to `Cc1c2ccncc2c(C)c2c1[nH]c1c(O)cccc12`, the IC50 is 5440 nM.
For `Cc1c2c[n+](C)ccc2c(C)c2c1c1cc(O)ccc1n2C`, the IC50 came out at 41 nM.
In the case of `Cc1c2ccncc2c(C)c2c1[nH]c1ccccc12` [ELLIPTECINE], the IC50 amounted to 990 nM.
As to `Cc1c2cc[n+](C)cc2c(C)c2c1[nH]c1ccc(O)cc12` [ELLIPTINIUM], the IC50 is 50 nM.
